Source: ChEMBL document CHEMBL6134894, “Medoxomil Prodrug Strategies” (J Med Chem, 2025)
One block for each compound: values may come before it.

Legend:
[1] = Lipophilicity, logP of the compound; format: physicochemical; conditions: octanol/water
[2] = Water solubility of the compound at pH 7.4 by HPLC analysis; format: physicochemical
[3] = Permeability across apical to basolateral side in human Caco-2 cells; format: ADME, cell-based; conditions: read-out: permeability
[4] = Oral bioavailability in Sprague-Dawley rat; format: ADME, organism-based; conditions: in vivo
[5] = Inhibition of ADP-induced platelet aggregation in New Zealand White rabbit; format: functional, Oryctolagus cuniculus
[6] = Oral bioavailability in dog at 0.03 mg/kg; format: ADME, organism-based, Canis lupus familiaris; conditions: in vivo
[7] = Half life in Wistar rat at 20 mg/kg, po by LC-MS/MS analysis; format: ADME, organism-based; conditions: in vivo
[8] = tested on: Human immunodeficiency virus 1; assay: Antiviral activity against HIV-1 infected in human MT4 cells assessed as inhibition of viral growth; format: functional, organism-based; conditions: Human immunodeficiency virus 1, MT4
[9] = Cmax in human at 20 mg/kg, po by LC-MS/MS analysis; format: ADME, organism-based; conditions: in vivo
[10] = AUC in human at 20 mg/kg, po by LC-MS/MS analysis; format: ADME, organism-based; conditions: in vivo
[11] = Oral bioavailability in Beagle dog; format: ADME, organism-based, Canis lupus familiaris; conditions: in vivo
[12] = Toxicity in Wistar rat assessed as effective dose; conditions: in vivo, 6 h
[13] = Oral bioavailability in Sprague-Dawley rat at 10 mg/kg measured for 24 hrs by LC-MS/MS analysis; format: ADME, organism-based; conditions: in vivo
[14] = Oral bioavailability in rat; format: ADME, organism-based; conditions: in vivo

SMILES: Cc1oc(=O)oc1COC(=O)CC[C@H](NC(=O)c1ccc(CCc2c[nH]c3[nH]c(N)nc(=O)c23)cc1)C(=O)O
- logP ([1]; read-out: logP): 1.72

SMILES: Cc1oc(=O)oc1COC(=O)N1CC[C@@H](N2CC/C(=C\C3=C(C(=O)O)N4C(=O)[C@@H](NC(=O)/C(=N\O)c5nsc(N)n5)[C@H]4SC3)C2=O)C1
- solubility [2]: > 200 µg/mL

SMILES: C=C(c1ccc(C(=O)OCc2oc(=O)oc2C)cc1)c1cc2c(cc1C)C(C)(C)CCC2(C)C
- bioavailability [4]: 12%

SMILES: C=C(c1ccc(C(=O)OCC)cc1)c1cc2c(cc1C)C(C)(C)CCC2(C)C
- bioavailability [4]: 35%

SMILES: Cc1oc(=O)oc1COC(=O)N1CCC(CC[C@@H]2CCCN(CC(=O)N[C@H](C)CC(=O)O)C2=O)CC1
- inhibition (INH) [5]: 100%
- bioavailability [6]: 23%

SMILES: Cc1oc(=O)oc1COC(=O)CC[C@H](NC(=O)c1ccc(CCc2c[nH]c3[nH]c(N)nc(=O)c23)cc1)C(=O)OCc1oc(=O)oc1C
- logP ([1]; read-out: logP): 2.64

SMILES: Cc1oc(=O)oc1COP(=O)(O)COCCn1cnc2c(N)ncnc21
- EC50 [8]: 10.6 µM

SMILES: CC1Sc2c(C(=O)O)c(=O)c3cc(F)c(N4CCNCC4)cc3n21 (stereo unspecified) [ULIFLOXACIN]
- Cmax [9]: 630 ng/mL
- AUC [10]: 22200 ng·h/mL

SMILES: CCCCc1nc(Cl)c(C(=O)O)n1Cc1ccc(-c2ccccc2-c2nn[nH]n2)cc1 [CARBOXYLIC ACID METABOLITE]
- ED50 [12]: 9.05 µg/kg

SMILES: Nc1ncnc2c1ncn2CCOCP(=O)(O)O [ADEFOVIR]
- EC50 [8]: 10.4 µM

More lines, now with the values ahead:

- Papp A→B [3]: 2.8 ×10⁻⁶ cm/s
SMILES: CCOc1nc2cccc(C(=O)OCc3oc(=O)oc3C)c2n1Cc1ccc(-c2ccccc2-c2noc(=O)[nH]2)cc1 [AZILSARTAN MEDOXOMIL]

- Papp A→B [3]: 0.636 ×10⁻⁶ cm/s
SMILES: CCOc1nc2cccc(C(=O)O)c2n1Cc1ccc(-c2ccccc2-c2noc(=O)[nH]2)cc1 [AZILSARTAN]

- half-life [7]: 30 min
SMILES: CCCc1nc(C(C)(C)O)c(C(=O)O)n1Cc1ccc(-c2ccccc2-c2nnn[nH]2)cc1 [OLMESARTAN]

- bioavailability [11]: 94.2%
SMILES: C[C@](N)(Cc1ccc(O)c(O)c1)C(=O)O [METHYLDOPA]

- logP [1]: 0.75
SMILES: Nc1nc2[nH]cc(CCc3ccc(C(=O)N[C@@H](CCC(=O)O)C(=O)O)cc3)c2c(=O)[nH]1 [PEMETREXED]

- bioavailability [4]: 75%
SMILES: C=C(c1ccc(C(=O)O)cc1)c1cc2c(cc1C)C(C)(C)CCC2(C)C [BEXAROTENE]

- bioavailability [11]: 92.1%
SMILES: Cc1oc(=O)oc1COC(=O)[C@@](C)(N)Cc1ccc(O)c(O)c1

- bioavailability [13]: 20%
- F [14]: 1%
SMILES: COC(=O)N[C@H](C(=O)N[C@@H](Cc1ccccc1)[C@@H](O)CN(Cc1ccc(-c2ccccn2)cc1)NC(=O)[C@@H](NC(=O)OC)C(C)(C)C)C(C)(C)C [ATAZANAVIR]
